Assays:
[1] = Keberle, 1964; cited from earlier work
[2] = Keberle, 1964; cited from earlier work; remark: listed apart in the source
[3] = Keberle, 1964; cited from earlier work; remark: listed apart in the source
[4] = Keberle, 1964; cited from earlier work; remark: listed apart in the source
[5] = tested on: doxorubicin-induced cardiomyopathy; assay: Doxorubicin-induced cardiomyopathy in mice; format: in vivo, C57BL/6 mice
Method: The purpose of this study was to assess the protective effect of dexrazoxan or the zinc-dexrazoxan complex, administered with or without Ga-DFO, against doxorubicin-induced cardiomyopathy.
C57BL/6 mice are injected once with doxorubicin, 20 mg/kg, i.p., and then divided into the following 5 groups: Group 1: untreated; Group 2: treated with dexrazoxan single dose of 400 mg/kg i.v.; Group 3: treated with the zinc complex of dexrazoxan single dose of 100 mg/kg i.v.; Group 4: treated with the Ga-DFO complex 6 mg/kg, and Group 5: treated with the zinc complex of dexrazoxan single dose of 50 mg/kg i.v. together with Ga-DFO 4 mg/kg. The animals are monitored for 21 days, measuring their survival (Kaplan-Meier curves). On Day 21 the animals are sacrificed, and their hearts are assessed histologically for cardiac remodeling and hypertrophy (collagen % or area).

Row | SMILES | relative stability constant of DFO complex with Fe(III) [1] | relative stability constant of DFO complex with Ga(III) [2] | relative stability constant of DFO complex with Cu(II) [3] | relative stability constant of DFO complex with Zn(II) [4] | survival ([5]; Day 15 after doxorubicin 20 mg/kg i.p., about 90% of untreated mice die) | collagen % of the area (cardiac histology) ([5]; Day 21 after doxorubicin 20 mg/kg i.p., untreated about 10-12%)
1 | CC(=O)N(O)CCCCCNC(=O)CCC(=O)N(O)CCCCCNC(=O)CCC(=O)N(O)CCCCCN [DFO, N′-[5-(acetyl-hydroxy-amino)pentyl]-N-[5-[3-(5-aminopentyl-hydroxy-carbamoyl)propanoylamino]pentyl]-N-hydroxy-butane diamide] | 10^31 | 10^28 | 10^14 | 10^11 |  | 
2 | C[C@@H](CN1CC(=O)NC(=O)C1)N1CC(=O)NC(=O)C1 [dexrazoxan] |  |  |  |  | about 50% | about 9%
